Where two headings read alike, the source gives them in different places. Square brackets hold non-standard residues; d marks the D form. Peptide text beside a SMILES is read from it. * marks the point of attachment. hPhe = N[CH](CCc1ccccc1)C(=O)O; Cbz = O=C(OCc1ccccc1)*
How the values were obtained:
[1] = molecular target: T1, proteasome from pituitary tissue (X/Y/Z isoform, constitutive proteasome), chymotrypsin-like (ChT-L) activity (Bos taurus, UniProt Q32KL2); assay: Inhibition of ChT-L activity of pituitary proteasome (constitutive proteasome); assay type: biochemical; settings: substrate Cbz-GGF-pAB; for Ki: Dixon plots, without preincubation, read-out: Ki (μM) Pituitary Proteasome, ChT-L component; for IC50: read-out: IC50 instead of Ki (†), Pituitary Proteasome, ChT-L component
T1 construct: the proteasome from pituitary tissue, representative of the X/Y/Z isoform; from tissue; host or cells: pituitary
Excerpt: (§1) To investigate the possibility that inhibitors specific for the immunoproteasome could be identified, the proteasome from pituitary tissue, representative of the X/Y/Z isoform (i.e., the constitutive proteasome), and the proteasome from spleen tissue, representative of the LMP-2/7/10 isoform (i.e., the immunoproteasome), were each purified to homogeneity. A panel of peptidyl-aldehyde substrate-related inhibitors were then screened for their ability to inhibit the chymotrypsin-like (ChT-L) and branched chain amino acid preferring (BrAAP) activities of these two proteasome preparations.
(§2) […] Determinations were carried out at three substrate concentrations and at six different inhibitor concentrations without preincubation of the enzyme with inhibitors. Substrate concentrations were 0.1 to 0.4 mM for the BrAAP activity of the spleen, and 0.5 to 4.0 mM for the ChT-L activity, and 1.0 to 4.0 mM for all others. The substrate for the BrAAP activity was Cbz-GPALG-pAB, and Cbz-GGF-pAB for the ChT-L activity. Data are averages±standard error, with the number of determinations shown in parentheses.
as §2, with “for the […] activity of” for “for the BrAAP activity of”, “in parentheses. † indicates IC50 instead of Ki. NI indicates no inhibition in the tested range.” for “in parentheses.”
as §2, with “parentheses. † indicates IC50 instead of Ki. NI indicates no inhibition in the tested range.” for “parentheses.”

[2] = molecular target: T2, proteasome from spleen tissue (LMP-2/7/10 isoform, immunoproteasome), chymotrypsin-like (ChT-L) activity (UniProt Q3T112); assay: Inhibition of ChT-L activity of spleen proteasome (immunoproteasome); assay type: biochemical
T2 construct: Ki (μM) Spleen Proteasome, ChT-L component; other: substrate Cbz-GGF-pAB, Dixon plots, without preincubation; other: substrate Cbz-GGF-pAB
T2 sequence (Q3T112 1-276): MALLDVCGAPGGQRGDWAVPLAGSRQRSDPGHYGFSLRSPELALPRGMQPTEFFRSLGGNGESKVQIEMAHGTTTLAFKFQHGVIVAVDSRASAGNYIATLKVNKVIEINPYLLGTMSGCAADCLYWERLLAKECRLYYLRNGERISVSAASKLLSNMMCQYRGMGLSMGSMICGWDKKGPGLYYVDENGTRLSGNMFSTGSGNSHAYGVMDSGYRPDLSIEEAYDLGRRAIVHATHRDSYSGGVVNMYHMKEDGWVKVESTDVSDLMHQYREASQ
Excerpt: as §1, with “preparations. […] The same was true for Cbz-FL-CHO, the peptide aldehyde version of bortezomib.” for “preparations.”
(§3) Dixon plots were used to obtain Ki values. Determinations were carried out at three substrate concentrations and at six different inhibitor concentrations without preincubation of the enzyme with inhibitors. Substrate concentrations were 0.1 to 0.4 mM for the BrAAP activity of the spleen, and 0.5 to 4.0 mM for the ChT-L activity, and 1.0 to 4.0 mM for all others. The substrate for the BrAAP activity was Cbz-GPALG-pAB, and Cbz-GGF-pAB for the ChT-L activity. Data are averages±standard error, with the number of determinations shown in parentheses.
as §3, with “for the […] activity of” for “for the BrAAP activity of”, “in parentheses. † indicates IC50 instead of Ki. NI indicates no inhibition in the tested range.” for “in parentheses.”
as §3, with “parentheses. † indicates IC50 instead of Ki. NI indicates no inhibition in the tested range.” for “parentheses.”

[3] = test system: proteasome from spleen tissue (LMP-2/7/10 isoform, immunoproteasome), chymotrypsin-like (ChT-L) activity; assay: as above; assay type: biochemical; settings: spleen versus pituitary proteasome, in vitro
Excerpt: as §1, with “preparations. […] The same was true for Cbz-FL-CHO, the peptide aldehyde version of bortezomib.” for “preparations.”
as §3
as §3, with “for the […] activity of” for “for the BrAAP activity of”, “in parentheses. † indicates IC50 instead of Ki. NI indicates no inhibition in the tested range.” for “in parentheses.”
as §3, with “parentheses. † indicates IC50 instead of Ki. NI indicates no inhibition in the tested range.” for “parentheses.”

[4] = test system: NCI-H929 human myeloma cells; assay: Proteasome inhibitor-induced apoptosis, ELISA of apoptotic nuclear DNA fragmentation; assay type: cell-based; settings: 18 hours
Procedure: (§4) Cultured NCI-H929 human myeloma cells, IM-9 human B-lymphoblasts, HPAC human pancreatic adenocarcinoma cells, and Hs 294T human melanoma cells were exposed to vehicle, 5 nM bortezomib (PS-341), or 50 μM Cbz-LnL-CHO for 18 hours. Apoptosis was evaluated using an enzyme-linked immunosorbent assay that detects apoptotic nuclear DNA fragmentation. Cell death is expressed as the fold-increase in apoptosis over the vehicle control, which was arbitrarily set at 1.0. Referring now to FIG. 2, the effect of PS-341 is shown in the open bar graphs, while Cbz-LnL-CHO (IPSI-001) is in the stippled bar graphs. The mean and standard error of the mean are shown for each condition from four independent experiments.

[5] = test system: IM-9 human B-lymphoblasts; assay: as above; assay type: cell-based; settings: 18 hours
Procedure: as §4

[6] = test system: proteasome from spleen tissue (LMP-2/7/10 isoform, immunoproteasome), branched chain amino acid preferring (BrAAP) activity; assay: Inhibition of BrAAP activity of spleen proteasome (immunoproteasome); assay type: biochemical; settings: spleen versus pituitary proteasome, in vitro
Excerpt: as §1, with “preparations. […] The same was true for Cbz-FL-CHO, the peptide aldehyde version of bortezomib.” for “preparations.”
as §3
Dixon plots were used to obtain Ki values. […]

[7] = test system: myeloma; settings: phase II study that led to FDA approval; cited from earlier work
[8] = test system: Hs 294T human melanoma cells; assay: Proteasome inhibitor-induced apoptosis, ELISA of apoptotic nuclear DNA fragmentation; assay type: cell-based; settings: 5 nM, 18 hours
Procedure: as §4

[9] = test system: HPAC human pancreatic adenocarcinoma cells; assay: as above; assay type: cell-based; settings: 5 nM, 18 hours
Procedure: as §4

[10] = read-out: Ki (μM) Spleen Proteasome, ChT-L component; substrate Cbz-GGF-pAB, Dixon plots, without preincubation
[11] = substrate Cbz-GGF-pAB, Dixon plots, without preincubation; read-out: Ki (μM) Spleen Proteasome, ChT-L component

| Ki [2, 11] [µM] | Compound | Ki [1] [µM] | IC50 [1] [µM] | other results |
| --- | --- | --- | --- | --- |
|  | CC(C)CC(NC(=O)OCc1ccccc1)C(=O)NC(CC(C)C)C(=O)NC(C=O)Cc1ccccc1 (stereo not drawn) [Cbz-LLF-CHO, N-carbobenzyloxy-leucyl-leucyl-phenylalanylal] (Cbz-Leu-Leu-Phe-aldehyde; configuration not given here) | 1.6 ± 0.5 |  | Ki [2, 10]: 5.97 ± 1.4 µM |
| 5.1 ± 0.9 | CC(C)C[C@@H](C=O)NC(=O)[C@H](CC(C)C)NC(=O)[C@H](CC(C)C)NC(=O)OCc1ccccc1 [Cbz-LLL-CHO, reference compound] (Cbz-Leu-Leu-Leu-aldehyde) | 6.9 ± 0.84 |  |  |
|  | O=CC(Cc1ccccc1)NC(=O)C(Cc1ccccc1)NC(=O)CNC(=O)OCc1ccccc1 (stereo not drawn) [Cbz-GFF-CHO, N-carbobenzyloxy-glycyl-phenylalanyl-phenylalanylal] (Cbz-Gly-Phe-Phe-aldehyde; configuration not given here) |  | 2.7 | IC50 ([2]; read-out: IC50 instead of Ki (†), Spleen Proteasome, ChT-L component; substrate Cbz-GGF-pAB): 1.03 µM |
| 5.6 ± 0.2 | CC(C)CC(NC(=O)OCc1ccccc1)C(=O)NC(C=O)Cc1ccccc1 (stereo not drawn) [Cbz-LF-CHO, N-carbobenzyloxy-leucyl-phenylalanylal] (Cbz-Leu-Phe-aldehyde; configuration not given here) |  | 154 |  |
| 1.45 ± 1.05 | CC(C)CC(C=O)NC(=O)C(C)NC(=O)C(CC(C)C)NC(=O)OCc1ccccc1 (stereo not drawn) [Cbz-LAL-CHO, reference compound] (Cbz-Leu-Ala-Leu-aldehyde; configuration not given here) | 0.82 ± 0.15 |  |  |
| 2.74 ± 0.33 | O=CC(Cc1ccccc1)NC(=O)C(CCc1ccccc1)NC(=O)OCc1ccccc1 (stereo not drawn) [Cbz-hFF-CHO, N-carbobenzyloxy-homophenylalanyl-phenylalanylal] (Cbz-[hPhe]-Phe-aldehyde; configuration not given here) |  | 40 |  |
|  | O=CC(Cc1ccccc1)NC(=O)C(Cc1ccccc1)NC(=O)C1CCCN1C(=O)CNC(=O)OCc1ccccc1 (stereo not drawn) [Cbz-GPFF-CHO, N-carbobenzyloxy-glycyl-prolyl-phenylalanyl-phenylalanylal] (Cbz-GPFF-aldehyde; configuration not given here) | 58 ± 1.8 |  | Ki [2, 10]: 5.6 ± 1.1 µM |
|  | CC(NC(=O)OCc1ccccc1)C(=O)NC(C=O)Cc1ccccc1 (stereo not drawn) [Cbz-AF-CHO, N-carbobenzyloxy-alanyl-phenylalanylal] |  | 380 | IC50 ([2]; substrate Cbz-GGF-pAB; read-out: IC50 instead of Ki (†), Spleen Proteasome, ChT-L component): 24 µM |
| 2.1 ± 0.29 | CC(C)CC(C=O)NC(=O)C(Cc1ccccc1)NC(=O)OCc1ccccc1 (stereo not drawn) [Cbz-FL-CHO, reference compound] (Cbz-Phe-Leu-aldehyde; configuration not given here) | 5.55 ± 0.47 |  |  |
|  | CC(C)C[C@H](NC(=O)[C@H](Cc1ccccc1)NC(=O)c1cnccn1)B(O)O [Bortezomib, reference compound] |  |  | patients with myeloma with partial responses or better [7]: 28%; induction of apoptosis (fold-increase over the vehicle control) ([4]; NCI-H929, 5 nM): induces apoptosis roughly equally in all of the cell lines tested; induction of apoptosis (fold-increase over the vehicle control) [8]: induces apoptosis roughly equally in all of the cell lines tested; induction of apoptosis (fold-increase over the vehicle control) ([5]; IM-9, 5 nM): induces apoptosis roughly equally in all of the cell lines tested; induction of apoptosis (fold-increase over the vehicle control) [9]: induces apoptosis roughly equally in all of the cell lines tested |
|  | CC(NC(=O)C1CCCN1C(=O)CNC(=O)OCc1ccccc1)C(=O)NC(C=O)Cc1ccccc1 (stereo not drawn) [Cbz-GPAF-CHO, N-carbobenzyloxy-glycyl-prolyl-alanyl-phenylalanylal] (Cbz-GPAF-aldehyde; configuration not given here) | 460 ± 66 |  | Ki [2, 10]: 8.4 ± 0.52 µM |
| 4 ± 0.27 | O=CC(Cc1ccccc1)NC(=O)C(Cc1ccccc1)NC(=O)OCc1ccccc1 (stereo not drawn) [Cbz-FF-CHO, N-carbobenzyloxy-phenylalanyl-phenylalanylal] (Cbz-Phe-Phe-aldehyde; configuration not given here) | 56 ± 4.4 |  |  |

| Compound | Ki [2, 11] [µM] | Ki [1] [µM] | IC50 [1] [µM] | other results |
| --- | --- | --- | --- | --- |
| CCCCC(C=O)NC(=O)C(CC(C)C)NC(=O)OCc1ccccc1 (stereo not drawn) [Cbz-LnL-CHO, N-carbobenzyloxy-leucyl-norleucinal] | 1.03 ± 0.17 | 105 ± 1.3 |  | preference for the LMP-containing ChT-L proteasome activity [3]: greater than 100 fold; induction of apoptosis (fold-increase over the vehicle control) ([4]; NCI-H929, 50 μM): induces significant apoptosis; induction of apoptosis (fold-increase over the vehicle control) ([5]; IM-9, 50 μM): induces significant apoptosis; preference for the LMP-containing BrAAP proteasome activity [6]: greater than 160 fold |
